Assay results from patent US20220054476A1, “SUSTAINED LOCAL DRUG LEVELS FOR INNATE IMMUNE AGONISTS” (Ascendis Pharma Oncology Division A/S, priority 2019, published 2022).
Marks after values point to notes of the source that are not given here.

Key:
in vivo = assay: in vivo; set-up: species or system WISTAR rats; details: male, Wistar, rat, sc, 25 ug; for half-life: t1/2 (biphasic)
Text: Hydrogels were suspended (ca. 6% wt/v) PBST buffer at pH 7.4. […] Blood samples were withdrawn and used for plasma generation over the course of 28 d. […] Plasma concentration profiles were generated and analyzed with Phoenix WinNonlin software (Certara, Princeton, N.J., USA).

CT26 tumor cells = assay: In vivo anti-tumor efficacy, absolute tumor volumes (Example 11); set-up: species or system BALB/C mice; details: single intratumoral dose (4: 20 μg; 13c: 50 μL)
Experimental: Mice were subcutaneously implanted with 3×10^5 CT26 tumor cells in the left and right flanks. […] Hydrogels were administered as suspensions in PBST buffer. Following treatment initiation, anti-tumor efficacy was assessed by determination of tumor volumes at various time points from tumor size measurements with a caliper. Tumor volumes were calculated according to the formula: Tumor volume=(L×W^2)×0.5 where L is the length of the tumor and W the width (both in mm). Mice were removed from the study once tumors were greater than 1500 mm^3.

[1] = tested on: IFNγ, IL-6, CCL2/MCP-1, TNFα in plasma; assay: In vivo cytokine induction, plasma cytokine levels (Example 12); set-up: species or system BALB/C mice; details: for IFNγ plasma level, Mean: values at/below LLOQ set to 0.01
Experimental: Mice were subcutaneously implanted with 3×10^5 CT26 tumor cells in the left and right flanks. […] Hydrogels were administered as suspensions in PBST buffer. K2 EDTA-preserved blood samples were collected by retro-orbital bleed at various time points following drug administration and plasma was isolated following centrifugation at 2000×g for 5 minutes at 4° C. and frozen. Plasma samples were stored at −80° C. Plasma was thawed and undiluted samples were assessed for cytokine levels using the 36-Plex Mouse ProcartaPlex™ Cytokine Panel 1A (ThermoFisher Scientific) following manufacturer's recommendations. Cytokines were measured on the Bio-Plex 200 (BioRad) following kit instructions.

[2] = tested on: Ly-6C^+ antigen presenting cells, MHCII^+ antigen presenting cells, CD8^+, Ly-6C^+ CD8^+ and CD4^+ T cells of tumor draining lymph nodes; assay: Flow cytometric profiling of tumor draining lymph node immune cells (Example 15); type: in vivo, BALB/C mice; details: 7 days after randomization
Experimental: Hydrogels were administered as suspension in PTP buffer. Some cohorts were further treated with 20 μg human IL-2 (Peprotech, Rocky Hill, N.J.), intraperitoneally (I.P.), twice a day for 5 days. Mice were sacrificed 7 days after randomization (D0). Following sacrifice, tumor draining lymph nodes were isolated from both flanks and were dissociated mechanically to generate a single cell suspension at a cell concentration of 1×10^6 cells per sample. Cell suspensions were centrifuged at 300 g for 5 minutes. Supernatants were discarded and cells were resuspended in FACS buffer with 1 μg/ml Fc-Block and incubated at 4° C. for 10 minutes in the dark. Surface marker antibody mixtures (antibody concentration: 10 μg/mL) in FACS buffer were added to each sample and samples were incubated in the dark at 4° C. for 30 minutes. Cells were centrifuged at 300 g for 5 minutes and supernatants were discarded. Cells were washed and then resuspended with FACS buffer before cytometer collection.
After collection, FACS data was analyzed using FlowJo Version 10.6.1. Compensation was digitally adjusted using single antibody-stained beads. Samples with less than 90% viability, as determined by LiveDead cell staining, were excluded from the analysis. Cells were defined using the following gating strategy: • 1) Ly-6C^+ antigen presenting cells: FSC-H/FSC-A Singlets/LiveDead^−/CD45^+/CD3^−/CD335^−/Ly-6C^+ • 2) Ly-6C^+ MHCII^+ antigen presenting cells: FSC-H/FSC-A Singlets/LiveDead^−/CD45^+/CD3^−/CD335^−/Ly-6C^+/IA/IE (MHCII)^+ • 3) CD8^+ T cells: FSC-H/FSC-A Singlets/LiveDead^−/CD45^+/CD3^+/CD8 single positive • 4) Ly-6C^+ CD8^+ T cells: FSC-H/FSC-A Singlets/LiveDead^−/CD45^+/CD3^+/CD8 single positive/Ly-6C^+

[3] = Resiquimod concentration in plasma samples after intratumoral injection (Example 17); type: in vivo, BALB/C mice; details: female, BALB/C, mouse, other: intratumoral injection, 10 μg
Experimental: Hydrogels were administered as suspensions in PTP buffer. […] Tumors were excised, weighed and snap frozen.

[4] = tested on: cytokine and chemokine genes (Il1a, Ccl3, Il1b, Cxcl2, Ccl2, Ccl4, Il10, Ifna4, Cxcl1, Cxcl10, Tnf) in PBMC; assay: PBMC gene expression 6 hours post-treatment, qPCR (Example 17); type: in vivo, BALB/C mice; set-up: key to Cxcl2 gene expression, Mean (2^ΔΔCT) / Ccl2 gene expression, Mean (2^ΔΔCT) / Ccl4 gene expression, Mean (2^ΔΔCT) / Ifna4 gene expression, Mean (2^ΔΔCT) / Cxcl1 gene expression, Mean (2^ΔΔCT) / Cxcl10 gene expression, Mean (2^ΔΔCT) / Il1a gene expression, Mean (2^ΔΔCT) / Tnf gene expression, Mean (2^ΔΔCT): fold change vs untreated, 2^-ΔΔCT, normalized to B2M/UBB/GAPDH
Experimental: Hydrogels were administered as suspensions in […]. […] Tumors were excised, weighed and snap frozen. […] For PBMC isolations, approximately 600 μl of whole blood was collected via cardiac puncture. The collected whole blood from each individual mouse was diluted with a 1:1 ratio of pre-warmed PBS supplemented with 2% Fetal Bovine Serum (FBS). Then an equal volume of Histopaque-1083 was added to a new sterile 15 mL conical tube, where the diluted whole blood was layered over the Histopaque-1083. The mixture was then centrifuged at 400 g for 30 minutes. The top plasma layer was discarded, and the white translucent interlayer (mononuclear cells) was carefully transferred to a new sterile centrifuge tube. The mononuclear cells were then washed with PBS supplemented with 2% FBS and then were spun down at 250 g for 10 minutes. Afterwards, the cells were lysed with 2 ml of Ammonium-Chloride-Potassium (ACK) lysis buffer (Gibco) for 5 minutes at room temperature to get rid of the red blood cells following manufacturer's instruction. Subsequently, the cells were washed twice with PBS supplemented with 2% FBS and were centrifuged at 250 g for 10 minutes. Then, the supernatant was removed and the PBMC cell pellet was lysed in RLT buffer (Qiagen) and stored at −80° C. before being proceeded to RNA extraction and isolation. Lysates from untreated control samples and 6 hour treated samples were thawed and RNA was isolated using the RNeasy Mini Kit (QIAGEN) following manufacturer's recommendations. Following the first column washing step, DNA was digested directly on the column using the RNase-free DNase Set (TIANGEN) following manufacturer's recommendations. RNA was eluted with RNase-free water. RNA concentrations were measured using a NanoDrop (ThermoFisher) and then adjusted to 200 ng/mL with RNase-free water. RNA quality was assessed using a NanoDrop (ThermoFisher). […] Reverse transcription was performed using random primers, 10 mM dNTP mix, and RNase inhibitor (TIANGEN). Reverse transcription was performed with the following thermal steps: 25° C. for 10 minutes, 37° C. for 120 minutes, 55° C. for 5 minutes. 200 ng of cDNA was used for quantitative PCR using the RT^2 SYBR Green ROX qPCR Master mix (2×) kit (QIAGEN) following manufacturer's recommendations. Probe sets used for qPCR reactions are as follows: [table] Cycle thresholds (CT) were collected using a 384-well platform ABI-7900H real-time qPCR system (Applied Biosystems). B2M, Ubb and GAPDH were used as housekeeping control genes. Data is reported as the average of the 2^-ΔΔCT values for each treatment. 2^-ΔΔCT values were calculated with the following formula: 2^-ΔΔCT=2^−(ΔCT(treated)−ΔCT(untreated)) ΔCT(treated)═CT(treated)−CT (average treated housekeeping) where CT(treated)═CT of the gene of interest of a sample triplicate in the treatment group and CT (treated housekeeping)=Total average CT of the B2M, UBB and GAPDH housekeeping genes of the same sample triplicate in the same treatment group. ΔCT(untreated)═CT (untreated)−CT (untreated housekeeping) where CT (untreated)=average of the CTs of the untreated triplicates at the same timepoint as the CT(treated) comparator and CT (untreated housekeeping)=Total average CT of the B2M, UBB and GAPDH housekeeping genes of the untreated triplicates. For each gene, 3 technical replicates were analyzed per biological replicate. Undetermined technical replicate CT values were recorded as zero ΔCT values. 4-5 biological replicates were assessed in total.

[5] = 1 h post-treatment, single intratumoral dose
[6] = 3 h post-treatment, single intratumoral dose
[7] = 6 h post-treatment, single intratumoral dose
[8] = 10 h post-treatment, single intratumoral dose
[9] = 24 h post-treatment, single intratumoral dose

## CCOCc1nc2c(N)nc3ccccc3c2n1CC(C)(C)O [Compound 4, Resiquimod]
In vivo
  AUC: 65.4 ng·h/mL
  Cmax: 23.1 ng/mL
In vivo; first value
  half-life: 1.5 h
In vivo; second value
  half-life: 10 h
CT26 tumor cells; day 0 post-treatment
  Absolute Tumor Volumes, Mean: 88.82 mm^3
CT26 tumor cells; day 2 post-treatment
  Absolute Tumor Volumes, Mean: 108.44 mm^3
CT26 tumor cells; day 4 post-treatment
  Absolute Tumor Volumes, Mean: 128.42 mm^3
CT26 tumor cells; day 7 post-treatment
  Absolute Tumor Volumes, Mean: 316.07 mm^3
CT26 tumor cells; day 9 post-treatment
  Absolute Tumor Volumes, Mean: 549.72 mm^3
CT26 tumor cells; day 11 post-treatment
  Absolute Tumor Volumes, Mean: 957.90 mm^3
CT26 tumor cells; day 14 post-treatment
  Absolute Tumor Volumes, Mean: 1220.96 mm^3
[1]; [5]
  CCL2/MCP-1 plasma level, Mean: 357.83 pg/mL
  IL-6 plasma level, Mean: 3618.87†, ‡ pg/mL
  TNFα plasma level, Mean: 830.84 pg/mL
[1]; 1 h post-treatment, single intratumoral dose (4: 20 μs; 13c: 50 μL)
  IFNγ plasma level, Mean: 4.04 pg/mL
[1]; [6]
  CCL2/MCP-1 plasma level, Mean: 4230.35†, ‡ pg/mL
  IL-6 plasma level, Mean: 1739.75†, ‡ pg/mL
  TNFα plasma level, Mean: 136.25 pg/mL
  IFNγ plasma level, Mean: 15.49†, ‡ pg/mL
[1]; [7]
  CCL2/MCP-1 plasma level, Mean: 1039.17†, ‡ pg/mL
  IL-6 plasma level, Mean: 88.59 pg/mL
  TNFα plasma level, Mean: 35.49 pg/mL
  IFNγ plasma level, Mean: 40.72†, ‡ pg/mL
[1]; [8]
  CCL2/MCP-1 plasma level, Mean: 847.07† pg/mL
  IL-6 plasma level, Mean: 154.51 pg/mL
  TNFα plasma level, Mean: 43.32 pg/mL
  IFNγ plasma level, Mean: 28.19†, ‡ pg/mL
[1]; [9]
  CCL2/MCP-1 plasma level, Mean: 92.58 pg/mL
  IL-6 plasma level, Mean: 44.71 pg/mL
  TNFα plasma level, Mean: 9.74 pg/mL
  IFNγ plasma level, Mean: 2.38 pg/mL
[2]; injected right flank tumor
  Frequency of CD4^+ T cells of CD3^+ T cells, Mean: 69.1%
  Frequency of CD8^+ T cells of CD3^+ T cells, Mean: 29.23%
  Frequency of IA-IE (MHCII)^+ antigen presenting cells of Ly-6C^+ antigen presenting cells, Mean: 69.63%
  Frequency of Ly-6C^+ T cells of CD8^+ T cells, Mean: 53.7%
  Frequency of Ly-6C^+ antigen presenting cells of non-T cells, Mean: 2.5%
[2]; uninjected left flank tumor
  Frequency of CD4^+ T cells of CD3^+ T cells, Mean: 69.25%
  Frequency of CD8^+ T cells of CD3^+ T cells, Mean: 29%
  Frequency of IA-IE (MHCII)^+ antigen presenting cells of Ly-6C^+ antigen presenting cells, Mean: 35.05%
  Frequency of Ly-6C^+ T cells of CD8^+ T cells, Mean: 48%
  Frequency of Ly-6C^+ antigen presenting cells of non-T cells, Mean: 7.8%
[3]; 0 hours
  concentration at 0 h: 210 ng/mL
[3]; 6 hours
  concentration at 6 h: 0.36 ng/mL
[3]; 22 hours
  concentration at 22 h: 0.022 ng/mL
[3]; 72 hours
  concentration at 72 h: 0.014 ng/mL
[4]; qPCR
  Ccl2 gene expression, Mean (2^ΔΔCT): 6.75
  Ccl3 gene expression, Mean (2^ΔΔCT): 1.43†
  Ccl4 gene expression, Mean (2^ΔΔCT): 1.31
  Cxcl1 gene expression, Mean (2^ΔΔCT): 7.41
  Cxcl2 gene expression, Mean (2^ΔΔCT): 35.37
  Cxcl10 gene expression, Mean (2^ΔΔCT): 45.38
  Ifna4 gene expression, Mean (2^ΔΔCT): 2.97
  Il1a gene expression, Mean (2^ΔΔCT): 0.41
  Il1b gene expression, Mean (2^ΔΔCT): 3.71†
  Il10 gene expression, Mean (2^ΔΔCT): 2.77†
  Tnf gene expression, Mean (2^ΔΔCT): 4.64
[4]; ratio of mean 4 to mean 13i
  Ccl2 Fold change (4/13i): 2.82
  Ccl3 Fold change (4/13i): 1.64
  Ccl4 Fold change (4/13i): 1.74
  Cxcl1 Fold change (4/13i): 11.54
  Cxcl2 Fold change (4/13i): 6.43
  Cxcl10 Fold change (4/13i): 21.41
  Ifna4 Fold change (4/13i): 20.48
  Il1a Fold change (4/13i): 1.78
  Il1b Fold change (4/13i): 7.92
  Il10 Fold change (4/13i): 2.29
  Tnf Fold change (4/13i): 4.45
